Experiments:
[1] = test system: streptozotocin (STZ) induced diabetic mice; assay: Blood glucose lowering after tail vein injection in STZ-induced diabetic mice; assay type: in vivo
Protocol: The mice were fasted during the glucose testing period.
The injection dose for the three samples were readily kept the same at 10 nmol/Kg insulin or its conjugate (for native insulin dose, 10 nmol/kg=1.5 IU/kg), by accurately controlling the feeding molar content of insulin for the conjugation reaction.
The in vivo bioavailability of insulin samples was evaluated by quantifying the area above the curve (AAC) of relative intensity of blood glucose concentration in FIG. 4B.

[2] = Circular dichroism secondary structure of insulin samples; assay type: physicochemical; conditions: far-UV CD, 0.2 mg/mL in 0.2 M pH 8.2 PBS buffer, CDSSTR analysis
Protocol: CD spectra were collected by using a Chirascan spectrophotometer from Applied Photophysics at 25° C. Insulin samples were dissolved in 0.2 M PBS buffer at 0.2 mg/ml. The […] CD spectra were measured from 200 to 250 nm with the light-path length of 1 mm. The scanning speed of CD spectra measurement was set at 200 nm/min. Each spectrum was the average of three scans to increase the signal-to-noise ratio of the measurements. The secondary structure proportions for insulin and its conjugates were analyzed using CDSSTR software.
The effect of polymer conjugation on the structure change of insulin was evaluated. Far-ultraviolet CD spectra were collected to quantify the effect of the zwitterionic polymer conjugation on insulin's secondary structure.

[3] = Hydrodynamic size by dynamic light scattering (DLS); assay type: physicochemical; conditions: pH 8.4 0.2M HEPES buffer, 25° C.; average±standard deviation, n=3
Protocol: The hydrodynamic sizes of the insulin and its conjugate samples were collected by a DLS method using a Malvern Nano-ZS Zetasizer at 25° C.
The hydrodynamic size of PCB-conjugated insulin was measured by a dynamic light scattering (DLS) method by using a Malvern Nano-ZS Zetasizer.

insulin receptor = biological target: T1, insulin receptor (Cricetulus griseus, UniProt A0A8C2MAM4); assay: In vitro bioactivity assay of insulin (phosphorylated AKT at Ser473 in CHO-M 1 cells); assay type: cell-based; conditions: 10 μg/mL, 45 minutes, FIG. 4C
T1 construct: host or cells: CHO-M1 cells
T1 sequence (A0A8C2MAM4 28-1372): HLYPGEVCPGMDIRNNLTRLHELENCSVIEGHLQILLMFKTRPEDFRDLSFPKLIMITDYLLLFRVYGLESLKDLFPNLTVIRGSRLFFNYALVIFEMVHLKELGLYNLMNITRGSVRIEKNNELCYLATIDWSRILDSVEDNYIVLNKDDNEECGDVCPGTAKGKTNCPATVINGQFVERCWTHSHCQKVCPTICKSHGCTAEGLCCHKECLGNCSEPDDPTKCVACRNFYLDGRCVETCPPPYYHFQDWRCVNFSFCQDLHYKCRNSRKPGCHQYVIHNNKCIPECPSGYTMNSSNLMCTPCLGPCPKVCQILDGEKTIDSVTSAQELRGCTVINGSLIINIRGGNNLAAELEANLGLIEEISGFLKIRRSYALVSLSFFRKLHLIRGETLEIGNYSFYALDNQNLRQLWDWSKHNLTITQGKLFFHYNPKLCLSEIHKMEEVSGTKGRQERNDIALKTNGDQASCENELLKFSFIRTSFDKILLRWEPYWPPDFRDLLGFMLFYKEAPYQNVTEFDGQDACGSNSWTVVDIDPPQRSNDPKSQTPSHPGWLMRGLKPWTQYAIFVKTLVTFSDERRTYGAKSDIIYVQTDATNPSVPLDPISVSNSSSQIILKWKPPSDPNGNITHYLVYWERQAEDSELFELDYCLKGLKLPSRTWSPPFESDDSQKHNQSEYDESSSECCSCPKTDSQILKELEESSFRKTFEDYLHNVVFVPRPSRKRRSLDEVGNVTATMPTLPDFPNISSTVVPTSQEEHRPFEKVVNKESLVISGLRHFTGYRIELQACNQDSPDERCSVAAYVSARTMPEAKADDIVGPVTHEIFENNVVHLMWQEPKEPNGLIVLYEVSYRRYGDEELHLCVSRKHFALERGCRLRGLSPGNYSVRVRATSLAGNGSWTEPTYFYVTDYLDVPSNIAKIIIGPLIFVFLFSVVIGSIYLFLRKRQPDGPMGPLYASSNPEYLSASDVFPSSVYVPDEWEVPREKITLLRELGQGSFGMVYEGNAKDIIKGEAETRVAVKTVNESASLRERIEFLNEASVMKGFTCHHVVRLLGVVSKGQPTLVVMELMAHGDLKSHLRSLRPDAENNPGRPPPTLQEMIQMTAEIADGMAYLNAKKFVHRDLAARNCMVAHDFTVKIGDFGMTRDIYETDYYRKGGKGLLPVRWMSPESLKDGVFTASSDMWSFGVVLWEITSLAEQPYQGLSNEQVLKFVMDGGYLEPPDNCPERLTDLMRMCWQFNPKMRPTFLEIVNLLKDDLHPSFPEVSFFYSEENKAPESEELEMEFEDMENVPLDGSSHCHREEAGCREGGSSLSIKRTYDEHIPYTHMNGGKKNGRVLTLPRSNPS
Protocol: About 25,000 CHO-M 1 cells/well (ATCC) were seeded in a 96-well tissue culture treated plate and incubate for 24 h before being cultured in serum-free medium. […] Then cells were lysed and a commercially available kit (Cisbio) was used to assay phosphorylated AKT at Ser473. The fluorescence emission at 665 and 620 nm was measured on a HTRF reader (BioTek, USA).
The relative activity was presented as the percentage relative to native insulin±standard deviation (n=6) * p<0.05, ** p<0.01, ns=not significant.

[4] = non-purified (rough) products, 10 nmol/Kg intravenous, FIG. 4A
[5] = purified conjugates, 10 nmol/kg intravenous, FIG. 4B

| Substance | blood glucose lowering ability compared with native insulin [1, 4] | blood glucose lowering ability compared with native insulin [1, 5] | Random coil (secondary structure proportion) [2] [%] | hydrodynamic size [3] [nm] | activity lost in vitro compared with native insulin (insulin receptor) |
| --- | --- | --- | --- | --- | --- |
| PCB-insulin: Conjugate of human recombinant insulin with NHS ester terminated zwitterionic carboxybetaine polymer (~5000 Da), one chain per insulin, prioritized at LysB29 | significantly higher blood glucose lowering ability than native insulin | even higher blood glucose lowering ability than native insulin |  |  |  |
| PEG-insulin: Comparison conjugate of human recombinant insulin with commercially available PEG-NHS (5000 Da) | similar | did not show any better glucose lowering effect than native insulin | 30 | 4.2±0.7 | about 27% |

Reference: US20190365907A1, “ZWITTERIONIC POLYMER-INSULIN COMPOSITIONS AND RELATED METHODS” (Wayne State University, priority 2017, published 2019)
